Test results published in PubChem BioAssay (NCI).
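Assay format: 96-well plates, 48-hour exposure. The concentration for full growth arrest is given as TGI.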

Assays:
Test in all cases: inhibition of tumour cell growth, NCI panel, 48 h
DLD-1 colon = tested on: DLD-1 colon
M19-MEL melanoma = tested on: M19-MEL melanoma
LXFL 529 NSCLC = tested on: LXFL 529 NSCLC
DMS 114 small cell lung = tested on: DMS 114 small cell lung
SNB-78 CNS = tested on: SNB-78 CNS
XF 498 CNS = tested on: XF 498 CNS
DMS 273 small cell lung = tested on: DMS 273 small cell lung
RXF-631 renal = tested on: RXF-631 renal

SMILES	TGI (DLD-1 colon) [µM]	TGI (M19-MEL melanoma) [µM]	TGI (LXFL 529 NSCLC) [µM]	TGI (DMS 114 small cell lung) [µM]	TGI (SNB-78 CNS) [µM]	TGI (XF 498 CNS) [µM]	TGI (DMS 273 small cell lung) [µM]	TGI (RXF-631 renal) [µM]
Cn1c(O)c(C(=O)Nc2cccs2)c(=O)[nH]c1=S	73.9	44.3	40.8	35.9	47.7			
O=C(NO)c1ccc([N+](=O)[O-])cc1	> 100	> 100	83.8	> 100		> 100	> 100	
CC1CC2OC(=O)C3CC(O)CC(=C23)[C@@]12C[C@@H](c1ccoc1)OC2=O (some centres undefined)	> 100	> 100	> 100		> 100	> 100	> 100	
COc1ccc(/C=C(\Cl)c2ccc(OC)c(OC)c2)cc1OC	> 100	> 100	> 100	> 100			> 100	
COc1ccc(Br)c2c1CC(C(=O)O)CC2 (centres undefined)	> 100		> 100	> 100	> 100	> 100	> 100	
C/C(=N\N)C(CN(C)C)C(c1ccccc1)c1c(O)c2ccccc2oc1=O (centres undefined)	> 100	> 100	> 100	> 100	> 100	99.8	> 100	> 100
COc1cc(/C=C\c2ccccn2)cc(OC)c1OC	> 100	> 100	> 100	> 100	> 100	> 100	> 100	> 100
COc1cc(/C=C/C(=O)c2sc(-n3nc(-c4ccccc4)cc3-c3ccccc3)nc2C)ccc1O	> 100	> 100		> 100	> 100		> 100	> 100
CCOC(=O)CSc1ccnc(=O)[nH]1		> 100	> 100	> 100	> 100	> 100	> 100	
CN(C(=O)C12C3C4C1C1C2C3C41I)C(C)(C)C (centres undefined)	> 100	> 100	> 100	> 100	> 100	> 100	> 100	> 100
Cc1c2ccncc2cc2c1sc1ccncc12	15	16.6	28.1	21.6	40.9	29.8	11.1	> 40.9
CCOC(C[C@H](O)[C@H]1COC(=S)S1)OCC		> 100	> 100	> 100		> 100	> 100	
CC(C)=CCCC1(C)C=Cc2c(c(C)cc3c2[nH]c2cc(O)ccc23)O1 (centres undefined)	> 25	> 25	> 25	> 25		> 25	> 25	
O=S(=O)([O-])[O-].[Fe+2].c1ccc(/C(=N\Nc2ccccn2)c2ccccn2)cc1	11.2	4.25	12.3	3.73	12.1		11.5	
CN(C)c1ccc(/C=C/C=C\C2=CC(=C\C=C/C=C3C=CC(=[N+](C)C)C=C3)/Sc3ccccc32)cc1		35		24.4	> 100		> 100	
C=CCONC(=O)c1ccc(Cl)cc1	> 100	> 100	> 100	> 100	> 100	> 100		> 100
NC(=O)OCC(COc1ccc(Cl)cc1)OC(=O)c1ccccc1Cl (centres undefined)	37.1		64.6	28.1	> 100		36.4	46
C/C(CN1C(=O)c2ccccc2C1=O)=N\NS(=O)(=O)c1ccc(Br)cc1	> 100	> 100	> 100	68.8	> 100		> 100	
CC#COP(=O)(OCC)OCC	> 100	> 100	> 100	> 100	> 100			> 100
NC(=S)NNC(=O)/C(=C/c1ccc(/C=C(\NC(=O)c2ccccc2)C(=O)NNC(N)=S)cc1)NC(=O)c1ccccc1	> 100	> 100	> 100	> 100	> 100	> 100	> 100	
CC(=O)OCC(=O)[C@@]1(O)CC[C@H]2[C@@H]3CCC4=CC(=O)[C@H](C)C[C@]4(C)[C@H]3[C@@H](O)C[C@@]21C	> 100	> 100		> 100	> 100	> 100	> 100	
c1ccc(Nc2nnc(CSc3nc(-c4ccccc4)c(-c4ccccc4)[nH]3)s2)cc1	> 100	28.6	53.3	81	79.9		43.4	
CCCCCCn1c(SCC)c2ccccc2c1-c1nc(F)nc(F)n1	> 100	> 100	> 100	> 100	> 100	> 100	> 100	
